Tests used:
CASOB (Sicklepod) = experiment: Postemergence herbicidal evaluation; format: in vivo, Cassia obtusifolia; settings: postemergence
Summary of the method: (§1)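 Compound is applied as a foliar spray to seedlings about two weeks old, formulated in equal parts acetone and water with 0.5% TWEEN 20 and delivered at 40 psi to give about 0.0156–0.500 kg per hectare. Injury is rated visually 0–9 after four to five weeks.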

[1] = tested on: CHEAL (Lambsquarters, Common); experiment: Postemergence herbicidal evaluation; format: in vivo, Chenopodium album; settings: postemergence
Summary of the method: as §1

ECHCG (Barnyardgrass) = experiment: Postemergence herbicidal evaluation; format: in vivo, Echinochloa crus-galli; settings: postemergence
Summary of the method: as §1

ORYSAT (Rice, Tebonnet) [2] = experiment: Postemergence herbicidal evaluation; format: in vivo, Oryza sativa, (L.) Tebonnet; settings: postemergence
Summary of the method: as §1

GALAP (Galium) = experiment: Preemergence herbicidal evaluation; format: in vivo, Galium aparine; settings: rated 4-5 weeks after treatment
Summary of the method: (§2)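 Each species is sown separately in potting soil over roughly an inch of soil before any emergence. The soil surface then receives an aqueous acetone spray delivering about 0.0156 to 0.500 kg/ha of compound. After four to five weeks, injury is scored from 0 to 9 relative to a control.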

SETVI (Foxtail, Green) = experiment: Preemergence herbicidal evaluation; format: in vivo, Setaria viridis; settings: rated 4-5 weeks after treatment
Summary of the method: as §2

[3] = tested on: GLXMAW (Soybean, Williams); experiment: Preemergence herbicidal evaluation; format: in vivo, Glycine max, (L.) Merr. cv Williams; settings: rated 4-5 weeks after treatment
Summary of the method: as §2

ORYSAT (Rice, Tebonnet) [4] = experiment: Preemergence herbicidal evaluation; format: in vivo, Oryza sativa, (L.) Tebonnet; settings: rated 4-5 weeks after treatment
Summary of the method: as §2

[5] = tested on: TRZAWR (Wheat, Winter, cv Riband); experiment: Preemergence herbicidal evaluation; format: in vivo, Triticum aestivum; settings: rated 4-5 weeks after treatment
Excerpt: (§3) Results of herbicide evaluation are expressed on a rating scale (0-9). The scale is based upon a visual observation of plant stand, vigor, malformation, size, chlorosis and overall plant appearance as compared with a control.
(§4) The preemergence herbicidal activity of the test compounds of the present invention is exemplified by the following tests in which the seeds of a variety of monocotyledonous and dicotyledonous plants are separately mixed with potting soil and planted on top of approximately one inch of soil in separate pint cups. After planting, the cups are sprayed with the selected aqueous acetone solution containing test compound in sufficient quantity to provide the equivalent of about 0.0156 to 0.500 kg per hectare of test compound per cup. The treated cups are then placed on greenhouse benches, watered and cared for in accordance with conventional greenhouse procedures. From four to five weeks after treatment, the tests are terminated and each cup is examined and rated according to the rating system provided in Example 37.
(§5) The compounds evaluated are reported by compound number given in Example 37.

ZEAMX (Corn, Field) = experiment: Preemergence herbicidal evaluation; format: in vivo, Zea mays; settings: rated 4-5 weeks after treatment
Excerpt: as §3, §4, §5

CYPIR (Rice Flatsedge) = experiment: Preemergence weed control under flooded paddy conditions; format: in vivo, Cyperus iria; settings: rated 3-4 weeks after treatment
Summary of the method: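 Visual injury scored 0-9 against control three to four weeks post-treatment, greenhouse-grown. Application: acetone/water (50/50) solutions dosed directly into flood water (1.5-3 cm over silt loam, planted top 0.5 cm), roughly 0.0313 to 0.500 kg/ha active ingredient.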

MOOVA (Monochoria) = experiment: as above; format: in vivo, Monochoria vaginalis; settings: rated 3-4 weeks after treatment
Summary of the method: (§6)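 First, seeds or propagules go into the top 0.5 cm of silt loam; next, water is held 1.5 to 3 cm over the soil; then compound (50/50 acetone/water) is pipetted into it at about 0.0313 to 0.500 kg/ha; finally plants are rated visually 0-9 after three to four weeks.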

[6] = tested on: SAGPY (Arrowhead (Pygmaea)); experiment: as above; format: in vivo, Sagittaria pygmaea; settings: rated 3-4 weeks after treatment
Summary of the method: as §6

CC(C)OC(=O)CN1C(=O)CSC1=Nc1cc(-n2c(=O)cc(C(F)(F)F)n(C)c2=O)c(F)cc1Cl [Compound 110]
2.5: Herbicidal rating ORYSAT (ORYSAT (Rice, Tebonnet) [2]; rate 0.0158 kg/ha) | Preemergence herbicidal rating SETVI (SETVI (Foxtail, Green); rate 0.0313 kg/ha) | Preemergence herbicidal rating GLXMAW ([3]; rate 0.0625 kg/ha) | Preemergence herbicidal rating ZEAMX (ZEAMX (Corn, Field); rate 0.1250 kg/ha)
5.0: Herbicidal rating ECHCG (ECHCG (Barnyardgrass); rate 0.0315 kg/ha) | Preemergence herbicidal rating SETVI (SETVI (Foxtail, Green); rate 0.0625 kg/ha) | Preemergence herbicidal rating ORYSAT (ORYSAT (Rice, Tebonnet) [4]; rate 0.2500 kg/ha)
4.0: Herbicidal rating ECHCG (ECHCG (Barnyardgrass); rate 0.0630 kg/ha) | Preemergence herbicidal rating GLXMAW ([3]; rate 0.1250 kg/ha) | Preemergence herbicidal rating ZEAMX (ZEAMX (Corn, Field); rate 0.5000 kg/ha) | CYPIR herbicidal effect rating (CYPIR (Rice Flatsedge); 0.0625 kg/ha)
5.5: Preemergence herbicidal rating GLXMAW ([3]; rate 0.2500 kg/ha)
0.0: Preemergence herbicidal rating GALAP (GALAP (Galium); rate 0.0156 kg/ha) | Preemergence herbicidal rating GALAP (GALAP (Galium); rate 0.0313 kg/ha) | Preemergence herbicidal rating GALAP (GALAP (Galium); rate 0.0625 kg/ha) | Preemergence herbicidal rating GALAP (GALAP (Galium); rate 0.1250 kg/ha) | Preemergence herbicidal rating ORYSAT (ORYSAT (Rice, Tebonnet) [4]; rate 0.0156 kg/ha) | Preemergence herbicidal rating TRZAWR ([5]; rate 0.0156 kg/ha) | Preemergence herbicidal rating ZEAMX (ZEAMX (Corn, Field); rate 0.0156 kg/ha)
7.0: Preemergence herbicidal rating GLXMAW ([3]; rate 0.5000 kg/ha) | CYPIR herbicidal effect rating (CYPIR (Rice Flatsedge); 0.1250 kg/ha) | SAGPY herbicidal effect rating ([6]; 0.0625 kg/ha) | SAGPY herbicidal effect rating ([6]; 0.1250 kg/ha)
3.5: Herbicidal rating ORYSAT (ORYSAT (Rice, Tebonnet) [2]; rate 0.0315 kg/ha) | Herbicidal rating ORYSAT (ORYSAT (Rice, Tebonnet) [2]; rate 0.0630 kg/ha) | Preemergence herbicidal rating ZEAMX (ZEAMX (Corn, Field); rate 0.2500 kg/ha)
6.0: SAGPY herbicidal effect rating ([6]; 0.0313 kg/ha)
1.5: Preemergence herbicidal rating SETVI (SETVI (Foxtail, Green); rate 0.0156 kg/ha) | Preemergence herbicidal rating ORYSAT (ORYSAT (Rice, Tebonnet) [4]; rate 0.1250 kg/ha)
3.0: Preemergence herbicidal rating ORYSAT (ORYSAT (Rice, Tebonnet) [4]; rate 0.5000 kg/ha) | CYPIR herbicidal effect rating (CYPIR (Rice Flatsedge); 0.0313 kg/ha)
0.5: Preemergence herbicidal rating GLXMAW ([3]; rate 0.0156 kg/ha) | Preemergence herbicidal rating GLXMAW ([3]; rate 0.0313 kg/ha) | Preemergence herbicidal rating ORYSAT (ORYSAT (Rice, Tebonnet) [4]; rate 0.0313 kg/ha) | Preemergence herbicidal rating ORYSAT (ORYSAT (Rice, Tebonnet) [4]; rate 0.0625 kg/ha) | Preemergence herbicidal rating ZEAMX (ZEAMX (Corn, Field); rate 0.0313 kg/ha)
8.0: Preemergence herbicidal rating SETVI (SETVI (Foxtail, Green); rate 0.1250 kg/ha) | CYPIR herbicidal effect rating (CYPIR (Rice Flatsedge); 0.2500 kg/ha) | SAGPY herbicidal effect rating ([6]; 0.2500 kg/ha)
9.0: Herbicidal rating CHEAL ([1]; rate 0.0158 kg/ha) | Herbicidal rating CHEAL ([1]; rate 0.0315 kg/ha) | Herbicidal rating CHEAL ([1]; rate 0.0630 kg/ha) | Preemergence herbicidal rating SETVI (SETVI (Foxtail, Green); rate 0.2500 kg/ha) | Preemergence herbicidal rating SETVI (SETVI (Foxtail, Green); rate 0.5000 kg/ha) | MOOVA herbicidal effect rating (MOOVA (Monochoria); 0.0313 kg/ha) | MOOVA herbicidal effect rating (MOOVA (Monochoria); 0.0625 kg/ha) | MOOVA herbicidal effect rating (MOOVA (Monochoria); 0.1250 kg/ha) | MOOVA herbicidal effect rating (MOOVA (Monochoria); 0.2500 kg/ha)
1.0: Herbicidal rating CASOB (CASOB (Sicklepod); rate 0.0158 kg/ha) | Herbicidal rating CASOB (CASOB (Sicklepod); rate 0.0315 kg/ha) | Herbicidal rating CASOB (CASOB (Sicklepod); rate 0.0630 kg/ha) | Herbicidal rating ECHCG (ECHCG (Barnyardgrass); rate 0.0158 kg/ha) | Preemergence herbicidal rating TRZAWR ([5]; rate 0.0313 kg/ha) | Preemergence herbicidal rating TRZAWR ([5]; rate 0.0625 kg/ha) | Preemergence herbicidal rating TRZAWR ([5]; rate 0.1250 kg/ha) | Preemergence herbicidal rating TRZAWR ([5]; rate 0.2500 kg/ha) | Preemergence herbicidal rating ZEAMX (ZEAMX (Corn, Field); rate 0.0625 kg/ha)
2.0: Preemergence herbicidal rating GALAP (GALAP (Galium); rate 0.2500 kg/ha)

Cn1c(C(F)(F)F)cc(=O)n(-c2cc(N=C3SCC(=O)N3CC(=O)OC3CCCC3)c(Cl)cc2F)c1=O [Compound 120, Cyclopentyl 2-{{2-chloro-5-[3,6-dihydro-3-methyl-2,6-dioxo-4-(trifluoromethyl)-1(2H)-pyrimidinyl]-4-fluorophenyl}imino}-4-oxo-3-thiazolidineacetate]
8.5: herbicidal effect rating, MOOVA (MOOVA (Monochoria); 0.0313 kg/ha)
1.0: Herbicidal rating ECHCG (ECHCG (Barnyardgrass); rate 0.0156 kg/ha)
3.5: herbicidal effect rating, CYPIR (CYPIR (Rice Flatsedge); 0.1250 kg/ha)
9.0: Herbicidal rating CHEAL ([1]; rate 0.0156 kg/ha) | Herbicidal rating CHEAL ([1]; rate 0.0313 kg/ha) | Herbicidal rating CHEAL ([1]; rate 0.0625 kg/ha) | Preemergence herbicidal rating SETVI (SETVI (Foxtail, Green); rate 0.0625 kg/ha) | Preemergence herbicidal rating SETVI (SETVI (Foxtail, Green); rate 0.1250 kg/ha) | Preemergence herbicidal rating SETVI (SETVI (Foxtail, Green); rate 0.2500 kg/ha) | herbicidal effect rating, CYPIR (CYPIR (Rice Flatsedge); 0.2500 kg/ha) | herbicidal effect rating, MOOVA (MOOVA (Monochoria); 0.0625 kg/ha) | herbicidal effect rating, MOOVA (MOOVA (Monochoria); 0.1250 kg/ha) | herbicidal effect rating, MOOVA (MOOVA (Monochoria); 0.2500 kg/ha)
4.0: Preemergence herbicidal rating TRZAWR ([5]; rate 0.2500 kg/ha)
8.0: Herbicidal rating CASOB (CASOB (Sicklepod); rate 0.0625 kg/ha)
2.0: Herbicidal rating ECHCG (ECHCG (Barnyardgrass); rate 0.0313 kg/ha) | Herbicidal rating ORYSAT (ORYSAT (Rice, Tebonnet) [2]; rate 0.0156 kg/ha) | herbicidal effect rating, CYPIR (CYPIR (Rice Flatsedge); 0.0313 kg/ha) | herbicidal effect rating, SAGPY ([6]; 0.1250 kg/ha)
7.5: herbicidal effect rating, SAGPY ([6]; 0.2500 kg/ha)
0.0: Preemergence herbicidal rating GALAP (GALAP (Galium); rate 0.0156 kg/ha) | Preemergence herbicidal rating GALAP (GALAP (Galium); rate 0.0313 kg/ha) | Preemergence herbicidal rating GALAP (GALAP (Galium); rate 0.0625 kg/ha) | Preemergence herbicidal rating GALAP (GALAP (Galium); rate 0.1250 kg/ha) | Preemergence herbicidal rating GALAP (GALAP (Galium); rate 0.2500 kg/ha) | Preemergence herbicidal rating SETVI (SETVI (Foxtail, Green); rate 0.0156 kg/ha) | Preemergence herbicidal rating SETVI (SETVI (Foxtail, Green); rate 0.0313 kg/ha) | Preemergence herbicidal rating GLXMAW ([3]; rate 0.0156 kg/ha) | Preemergence herbicidal rating GLXMAW ([3]; rate 0.0313 kg/ha) | Preemergence herbicidal rating GLXMAW ([3]; rate 0.0625 kg/ha) | Preemergence herbicidal rating GLXMAW ([3]; rate 0.1250 kg/ha) | Preemergence herbicidal rating ORYSAT (ORYSAT (Rice, Tebonnet) [4]; rate 0.0156 kg/ha) | Preemergence herbicidal rating ORYSAT (ORYSAT (Rice, Tebonnet) [4]; rate 0.0313 kg/ha) | Preemergence herbicidal rating ORYSAT (ORYSAT (Rice, Tebonnet) [4]; rate 0.0625 kg/ha) | Preemergence herbicidal rating ORYSAT (ORYSAT (Rice, Tebonnet) [4]; rate 0.1250 kg/ha) | Preemergence herbicidal rating ORYSAT (ORYSAT (Rice, Tebonnet) [4]; rate 0.2500 kg/ha) | Preemergence herbicidal rating TRZAWR ([5]; rate 0.0156 kg/ha) | Preemergence herbicidal rating TRZAWR ([5]; rate 0.0313 kg/ha) | Preemergence herbicidal rating TRZAWR ([5]; rate 0.0625 kg/ha) | Preemergence herbicidal rating TRZAWR ([5]; rate 0.1250 kg/ha) | Preemergence herbicidal rating ZEAMX (ZEAMX (Corn, Field); rate 0.0156 kg/ha) | Preemergence herbicidal rating ZEAMX (ZEAMX (Corn, Field); rate 0.0313 kg/ha) | Preemergence herbicidal rating ZEAMX (ZEAMX (Corn, Field); rate 0.0625 kg/ha) | Preemergence herbicidal rating ZEAMX (ZEAMX (Corn, Field); rate 0.1250 kg/ha) | herbicidal effect rating, SAGPY ([6]; 0.0313 kg/ha) | herbicidal effect rating, SAGPY ([6]; 0.0625 kg/ha)
5.0: Herbicidal rating CASOB (CASOB (Sicklepod); rate 0.0313 kg/ha) | Herbicidal rating ECHCG (ECHCG (Barnyardgrass); rate 0.0625 kg/ha)
3.0: Herbicidal rating CASOB (CASOB (Sicklepod); rate 0.0156 kg/ha) | Preemergence herbicidal rating GLXMAW ([3]; rate 0.2500 kg/ha) | Preemergence herbicidal rating ZEAMX (ZEAMX (Corn, Field); rate 0.2500 kg/ha)
2.5: Herbicidal rating ORYSAT (ORYSAT (Rice, Tebonnet) [2]; rate 0.0313 kg/ha) | Herbicidal rating ORYSAT (ORYSAT (Rice, Tebonnet) [2]; rate 0.0625 kg/ha) | herbicidal effect rating, CYPIR (CYPIR (Rice Flatsedge); 0.0625 kg/ha)

Source: patent publication US20020137929A1, “1 - (3-heterocyclylphenyl) isothiourea, -isourea, -guanidine and -amidine herbicidal agents” (Intellectual Property Department, BASF Aktiengesellschaft, priority 1998, published 2002)
